Test systems include A549 NSCLC; ACHN renal; CAKI-1 renal; EKVX NSCLC; KM12 colon; SNB-19 CNS; SW-620 colon; HS 578T breast.
Holding throughout (experiment): NCI-60 cell line screen, 48 h

This is an account of results in PubChem BioAssay (NCI).

Where “and” joins values, the source holds several entries; their conditions need not be identical. Equal values may be shown once.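 96-well plates; 48 h exposure; 5 concentrations. Endpoints by linear interpolation between flanking doses. Not reached: highest tested concentration assigned. The concentration for 50% growth inhibition is given as GI50. TGI is the concentration that stops growth completely.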

With `COc1cc2c(cc1OC)-c1ncc3cc4c(cc3c1C2)OCO4`, the GI50 in the assay on A549 NSCLC is 34.2 µM; in the assay with ACHN renal it was greater than 100 µM; in the assay with CAKI-1 renal, 38.5 µM; in the assay with EKVX NSCLC, 22 µM; with KM12 colon it was 38.1 µM; in the assay on SNB-19 CNS it was 60 µM. The GI50 in the assay with SW-620 colon is 34.9 µM. The TGI with A549 NSCLC is greater than 100 µM; with ACHN renal, greater than 100 µM; in the assay with CAKI-1 renal, greater than 100 µM; in the assay with EKVX NSCLC, 72.3 µM; with KM12 colon, greater than 100 µM; in the assay with SNB-19 CNS, greater than 100 µM. Also, in the assay with SW-620 colon, the TGI is greater than 100 µM.

As to `C#CCN(Cc1nc2cc(C(F)(F)F)ccc2nc1-c1ccccc1)c1ccc(F)c(F)c1`, the GI50 was 19.8 µM in the assay on A549 NSCLC; 78.3 µM in the assay with ACHN renal; 17 µM in the assay on EKVX NSCLC; 45.5 µM in the assay with HS 578T breast; 92.5 µM in the assay with SNB-19 CNS; 36 µM in the assay on SW-620 colon. Besides, the TGI in the assay with A549 NSCLC was 82.1 µM; in the assay on ACHN renal, greater than 100 µM; in the assay on EKVX NSCLC, 57.2 µM; with HS 578T breast, greater than 100 µM; in the assay with SNB-19 CNS, greater than 100 µM; in the assay on SW-620 colon, greater than 100 µM.

With `Nc1c(C(=O)Nc2cccc(Br)c2)sc2nc3c(cc12)C(O)CCC3` (configuration not stated), the GI50 was 0.494 µM in the assay with A549 NSCLC; 0.848 µM in the assay with ACHN renal; 0.439 µM with CAKI-1 renal; 0.395 µM in the assay with HS 578T breast; 0.399 µM in the assay on KM12 colon; 2.52 µM in the assay on SNB-19 CNS. Further, the GI50 in the assay with SW-620 colon is 0.4 µM. Moreover, the TGI in the assay on A549 NSCLC is 22 µM; in the assay with ACHN renal, 31.1 µM; in the assay with CAKI-1 renal, greater than 100 µM; in the assay with HS 578T breast, 12.7 µM; in the assay on KM12 colon it was greater than 51 µM; in the assay on SNB-19 CNS, 53.9 µM. Also, in the assay with SW-620 colon, the TGI was greater than 82 µM.

For the molecule `COc1ccc2nc3cccc(C(=O)NCCN(C)C)c3nc2c1`, the TGI was greater than 100 µM in the assay on A549 NSCLC; 6.78 µM in the assay with ACHN renal; greater than 20.9 µM in the assay on CAKI-1 renal; 12.7 µM in the assay on EKVX NSCLC; 9.82 µM in the assay with KM12 colon; 19.6 µM in the assay on SNB-19 CNS.

In the case of `CO[C@H](C(=O)O)[C@@H]1Cc2cc3cc(OC4CC(OC5CC(O)C(O)C(C)O5)C(O)C(C)O4)c(C)c(O)c3c(O)c2C(=O)[C@H]1OC1CC(OC2CC(OC3CC(C)(O)C(O)C(C)O3)C(O)C(C)O2)C(O)C(C)O1` (some centres not stated), the GI50 is 0.257 µM in the assay with A549 NSCLC; 0.598 µM in the assay with CAKI-1 renal; 0.57 µM in the assay with EKVX NSCLC; 0.161 µM with HS 578T breast; 0.233 µM with KM12 colon; 0.201 µM with SNB-19 CNS. Also, the GI50 in the assay with SW-620 colon was 0.245 µM. The TGI in the assay with A549 NSCLC is greater than 32.5 µM; with CAKI-1 renal it was greater than 32.5 µM; in the assay with EKVX NSCLC it was greater than 32.5 µM; in the assay on HS 578T breast, greater than 32.5 µM; in the assay with KM12 colon, 2.59 µM; with SNB-19 CNS it was greater than 32.5 µM. The TGI with SW-620 colon is greater than 32.5 µM.

Turning to `C#Cc1cc2c(N)c(C(=O)c3cc(OC)c(OC)c(OC)c3)[nH]c2cc1OC`, the GI50 was 0.729 µM in the assay with A549 NSCLC; 0.574 µM in the assay with ACHN renal; 0.573 µM with CAKI-1 renal; 1.34 µM with HS 578T breast; 0.412 µM in the assay with KM12 colon; 0.73 µM in the assay with SNB-19 CNS. In addition, the GI50 in the assay with SW-620 colon was 0.396 µM. In addition, the TGI with A549 NSCLC, in the assay with ACHN renal, in the assay with CAKI-1 renal, in the assay on HS 578T breast, with KM12 colon and in the assay on SNB-19 CNS was greater than 100 µM in each case. Also, the TGI in the assay with SW-620 colon was greater than 100 µM.

Regarding `Nc1c(-c2nc3ccccc3[nH]2)sc(=S)n1-c1ccc(Cl)cc1`, the TGI in the assay with A549 NSCLC is 51.1 µM; in the assay with ACHN renal, 43 µM; in the assay on CAKI-1 renal it was 54.6 µM; in the assay on EKVX NSCLC, 67.4 µM; in the assay on KM12 colon, 78.3 µM; in the assay with SNB-19 CNS, 57.4 µM. In the assay with SW-620 colon, this molecule displayed a TGI greater than 100 µM.

Regarding `CCCCCc1c(C)[nH]c(/C=C2\N=C(c3ccc[nH]3)C=C2OCc2ccccc2)c1C`, the GI50 in the assay on A549 NSCLC is 0.0328 µM and 0.0283 µM; in the assay with ACHN renal, 0.0514 µM and 0.0324 µM; in the assay with CAKI-1 renal, 0.0498 µM and 0.0269 µM; in the assay on HS 578T breast, 0.0962 µM and 0.0277 µM; in the assay with KM12 colon, 0.0352 µM and 0.0246 µM; in the assay on SNB-19 CNS, 0.21 µM and 0.112 µM. Also, the GI50 in the assay with SW-620 colon is 0.0369 µM and 0.0295 µM. The TGI in the assay with A549 NSCLC was 0.381 µM and 0.0957 µM; with ACHN renal it was 0.941 µM and 0.75 µM; in the assay on HS 578T breast, 0.697 µM and 0.238 µM; with KM12 colon, 1.04 µM and 0.262 µM; in the assay on SNB-19 CNS, 1.96 µM; in the assay on SW-620 colon, 1.21 µM and 0.322 µM.

Take `C1C[OH+]CC[OH+]CC[OH+]CC[OH+]CC[OH+]CC[OH+]1.[Cl-].[Nb+5]`: the GI50 with A549 NSCLC, in the assay on ACHN renal, with CAKI-1 renal, with KM12 colon, in the assay on SNB-19 CNS and in the assay with SW-620 colon was greater than 100 µM each time. Besides, the TGI in the assay on A549 NSCLC, with ACHN renal, in the assay on CAKI-1 renal, with KM12 colon, in the assay with SNB-19 CNS and with SW-620 colon was greater than 100 µM each time.

As to `CCCCOc1ccc(/C=N/Nc2cc(C)nc3ccc(Cl)cc23)cc1`, the GI50 in the assay with A549 NSCLC is 1.86 µM; in the assay with ACHN renal it was 1.73 µM; in the assay with CAKI-1 renal, 1.68 µM; with EKVX NSCLC, 1.63 µM; in the assay with KM12 colon, 1.93 µM; in the assay on SNB-19 CNS it was 1.81 µM. Also, the TGI in the assay on A549 NSCLC turned out to be 3.44 µM; with ACHN renal, 3.1 µM; in the assay on CAKI-1 renal, 3.07 µM; in the assay on EKVX NSCLC, 3.01 µM; in the assay with KM12 colon it was 3.87 µM; with SNB-19 CNS, 3.3 µM.

On to `CCCn1c(N)c(C(=O)CNc2ccc(I)cc2)c(=O)[nH]c1=O`, for which the GI50 in the assay on A549 NSCLC was 2.1 µM; in the assay with ACHN renal, 8.69 µM; in the assay with CAKI-1 renal it was 6.53 µM; in the assay on EKVX NSCLC, greater than 64.3 µM; in the assay on HS 578T breast it was 17.4 µM; in the assay with SNB-19 CNS, 2.02 µM. In addition, in the assay with SW-620 colon, the GI50 is 2.89 µM. For the same molecule, the TGI is greater than 100 µM in the assay with A549 NSCLC; greater than 100 µM with ACHN renal; greater than 100 µM with CAKI-1 renal; greater than 100 µM with EKVX NSCLC; greater than 100 µM with HS 578T breast; greater than 59.5 µM with SNB-19 CNS. In the assay on SW-620 colon, this molecule gave a TGI greater than 100 µM.
